Where two headings read alike, the source gives them in different places.
Key:
Type in all cases: cell-based
E. coli CO244 = assay: MIC assay with or without SPR741, E. coli CO244; conditions: Escherichia coli
Procedure: We next sought to determine whether we could achieve growth inhibition of wild-type E. coli using MAC-0452936 and an antibiotic adjuvant. […] To that end, we determined the MIC of MAC-0452936 against wild-type E. coli in the presence and absence of a sub-MIC concentration of SPR741 (Figure S8B). […] We leveraged this combination to characterize the spectrum of activity of MAC-0452936 against a panel of Gram-negative pathogens (Table 2). In the presence of 8 μg/mL SPR741, we observed MAC-0452936 activity against the clinical E. coli isolates C0244 and CFT073 at 2 μg/mL as well as against Salmonella Typhimurium SL1344 at 4 μg/mL.
For MIC assays, cultures of bacteria were grown in LB broth. Overnight cultures were diluted (1:100) into fresh LB media and grown to the mid-log phase of growth (OD600 ∼0.5). Subcultures were then normalized to an OD600 of 0.1, and diluted (1:5000) into assay media. Assay plates were then incubated for 18 h at 37°C, then OD600 was measured using a Biotek Neo plate reader.

[1] = tested on: E. coli ΔtolC-pore harboring the lgt expression plasmid pCHAP9231; assay: Ectopic lgt expression MIC (high-copy suppression, pCHAP9231); conditions: pCHAP9231, 0.4% arabinose, LB
E. coli ΔtolC-pore = assay: Live cell fluorescence microscopy, cell width; conditions: increasing concentrations, 1 h, DAPI and FM4-64 stain
Procedure: Figure 4 MAC-0452936 inhibited prolipoprotein diacylglyceryl transferase, Lgt (A) Growth inhibition of E. coli ΔtolC-pore, three independent MAC-0452936 resistance mutants with a V109A substitution in Lgt (2,959,071A→G), a mutant with an A37T substitution (2,959,288C→T), and a mutant with a G138A substitution (2,958,984C→G). The experiment was conducted in biological triplicate. Data are represented as mean ± SEM. (B) Structure of Lgt from E. coli with two phosphatidyl-glycerol (PG) moieties bound (PDB: 5AZB).[49] Mutated residues from spontaneous resistance mutants are highlighted in blue on proximal α-helices, with the blue sphere highlighting the space in between the mutated residues where both PG moieties reside. […] The width of at least 240 cells was measured at each MAC-0452936 concentration, with specific n values for each concentration of MAC-0452936 listed in the figure. […]
An overnight culture of E. coli ΔtolC-pore was prepared, then diluted (1:100) into fresh LB media and grown to the mid-exponential phase of growth (OD600 ∼0.5). […] Samples were imaged using a Nikon Eclipse Ti inverted microscope at 100× magnification, with a minimum of 200 cells counted per image. Images were quantified with ImageJ, using the following macro. […]

## COc1ccc(C(=O)O/N=C(\c2cccs2)C(C)(C)C)cc1 [MAC-0452936, (Z)-2-Pivaloylthiophene O-(4-methoxybenzoyl) oxime]
E. coli CO244; CO244, read-out: MIC, E. coli CO244 + 8 μg/mL SPR741
  MIC: 2 µg/mL
E. coli CO244; CO244, read-out: MIC, E. coli CO244 + 0 μg/mL SPR741
  MIC: > 64 µg/mL
[1]
  suppression of activity by induction of lgt expression with arabinose: about 8 fold
E. coli ΔtolC-pore
  effect on cell width and morphology: dose-dependent increase in cell width

Reference: PMC11456916, “A screen for cell envelope stress uncovers an inhibitor of prolipoprotein diacylglyceryl transferase, Lgt, in Escherichiacoli” (iScience, 2024)
